Measurements reported in article PMC3922101 (Osong Public Health and Research Perspectives, 2013).

What was measured:
Type in all cases: biochemical, influenza A/Chungbuk/4448/2008(H1N1) virus
[1] = biological target: neuraminidase (NA) of recombinant virus Chungbuk-Y275H-E119V (Influenza A virus, UniProt E3JK96, E119V/Y275H)
[2] = biological target: neuraminidase (NA) of recombinant virus Chungbuk-Y275H-N295S-I117V (Influenza A virus (A/Chungbuk/4448/2008(H1N1)), UniProt E3JK96, I117V/N295S/Y275H)
[3] = biological target: neuraminidase (NA) of recombinant virus Chungbuk-Y275H-N295S-I117M (Influenza A virus (A/Chungbuk/4448/2008(H1N1)), UniProt E3JK96, I117M/N295S/Y275H)
[4] = biological target: neuraminidase (NA) of recombinant virus Chungbuk-Y275H-N295S-I223V (Influenza A virus (A/Chungbuk/4448/2008(H1N1)), UniProt E3JK96, I223V/N295S/Y275H)
[5] = biological target: neuraminidase (NA) of recombinant virus Chungbuk-Y275-E119V (Influenza A virus, UniProt E3JK96, E119V)
[6] = biological target: neuraminidase (NA) of recombinant virus Chungbuk-Y275-N295S-I117M (Influenza A virus, UniProt E3JK96, I117M/N295S)
[7] = biological target: neuraminidase (NA) of recombinant virus Chungbuk-Y275-N295S-I223V (Influenza A virus, UniProt E3JK96, I223V/N295S)
[8] = test system: NA of all the single, double, and triple mutants containing the E119V mutation
[9] = test system: NA of all the single and double mutants containing tyrosine (Y) at NA residue 275 except Chungbuk-Y275-E119V

With `CC(=O)N[C@H]1[C@H]([C@H](O)[C@H](O)CO)OC(C(=O)O)=C[C@@H]1N=C(N)N` [Zanamivir] the NAI resistance phenotype [1] was “important levels of resistance”, the NAI resistance phenotype [2] was “susceptible” and the NAI resistance phenotype [3] was “susceptible”. The NAI resistance phenotype [4] was “susceptible”, the NAI resistance phenotype [5] was “important levels of resistance” and the NAI resistance phenotype [6] was “susceptible”. The NAI resistance phenotype [7] was “susceptible”, the NAI resistance phenotype [8] was “resistance” and the NAI resistance phenotype [9] was “susceptibility”.
